Data taken from patent publication US10322097B2, “Treatment of subjects with multidrug-resistant cancer” (priority 2015, dated 2019).
pIC50: −log10 of the molar value.

Experiments:
[1] = molecular target: P-gp (Homo sapiens, UniProt P08183); experiment: Rho123 efflux assay in A549 taxol-resistant lung cancer cells (flow cytometry)
Procedure: A549 taxol-resistant lung cancer cells were seeded in 6 well-plates at a final concentration of 2×10^5 cells per well and cultured for 24 h at 37° C. in an atmosphere containing 5% CO2. […] Subsequently, 5 mg/mL Rho123 was added to each well and the wells were incubated for another 1 h at 37° C. At the end of the incubation, the accumulation of Rho123 was stopped by washing the cells five times with ice-cold PBS. After cell centrifugation, cell pellets were resuspended in 400 μL PBS. […] All data acquisition and analyses were performed with CellQuest (BD Biosciences, San Jose, Calif., USA) in triplicate in three independent experiments, and the results were shown as the mean of fluorescence intensity.
A549 taxol-resistant lung cancer cells were seeded in 6 well-plates at a final concentration of 2×10^5 cells per well and cultured for 24 h at 37° C. in an atmosphere containing 5% CO2. […] All data acquisition and analyses were performed with CellQuest (BD Biosciences, San Jose, Calif., USA) in triplicate in three independent experiments, and the results were shown as the mean of fluorescence intensity.

[2] = tested on: HEK293 kidney cells; experiment: MTT cytotoxicity assay, HEK293; assay type: cell-based; conditions: Homo sapiens, HEK293, 72 h, 3 days
Procedure: (§1) Cell cultures and cytotoxicity assays have been used. Celastrol was dissolved in DMSO at a final concentration of 100 mmol/L and stored at −20° C. Cytotoxicity was assessed using the 3-(4,5-dimethylthiazol-2-yl)-2,5-diphenyltetrazolium bromide assay. 4000 cells from HEK293 and HEK293/ABCB5 kidney cancer cells or MDA-MB-231 pcDNA and MDA-MB-231/BCRP breast cancer cells were seeded on 96-well plates per well. After overnight pre-incubation, the cells were exposed to different concentrations of celastrol (0.1-10 μmol/L) for 3 days. Subsequently, 10 μL of MTT reagents were added to each well and incubated at 37° C. for 4 hours followed by the addition of 100 μL solubilization buffer (10% SDS in 0.01 mol/L HCl) and overnight incubation. Absorbance at 585 nm was determined from each well the next day. The percentage of cell viability was calculated using the following formula: Cell viability (%)=Cells number treated/Cells number DMSO control×100. Data were obtained from three independent experiments.

[3] = tested on: HEK293/ABCB5 kidney cells; experiment: MTT cytotoxicity assay, HEK293/ABCB5; assay type: cell-based
Procedure: as §1

[4] = tested on: DLD-1 Bax-Bak+/+ colon cancer cells; experiment: MTT cytotoxicity assay, DLD-1 Bax-Bak+/+; assay type: cell-based; conditions: Homo sapiens, DLD-1, 72 h, read-out: IC50 DLD-1 Bax-Bak+/+ colon cancer cells
Procedure: Cell cultures and cytotoxicity assays have been used. Celastrol was dissolved in DMSO at a final concentration of 100 mmol/L and stored at −20° C. Cytotoxicity was assessed using the 3-(4,5-dimethylthiazol-2-yl)-2,5-diphenyltetrazolium bromide assay. 4000 cells from HCT116 p53^+/+ or p53^−/− colon cancer cells and DLD-1 Bax-Bak^+/+ or Bax-Bak^−/− colon cancer cells were seeded on 96-well plates per well. […] Subsequently, 10 μL of MTT reagents were added to each well and incubated at 37° C. for 4 hours followed by the addition of 100 μL solubilization buffer (10% SDS in 0.01 mol/L HCl) and overnight incubation. […] The percentage of cell viability was calculated using the following formula: Cell viability (%)=Cells number treated/Cells number DMSO control×100. Data were obtained from three independent experiments.

[5] = tested on: A549 (Lung) taxol resistant cancer cells; experiment: MTT cytotoxicity assay, A549 taxol resistant; assay type: cell-based, human
Procedure: as §1, with “from A549 (lung), A2780 (ovary), HCT-8 (colon)” for “from HEK293”, “and MCF-7 (breast)” for “and HEK293/ABCB5 kidney cancer cells or MDA-MB-231 pcDNA and MDA-MB-231/BCRP breast”, “celastrol (0.039-100” for “celastrol (0.1-10”, “μmol/L) or taxol” for “μmol/L)”, “reagents was” for “reagents were”

[6] = tested on: A2780 (Ovary) taxol resistant cancer cells; experiment: MTT cytotoxicity assay, A2780 taxol resistant; assay type: cell-based, human; conditions: for Resistant Factor: A2780 taxol resistant versus taxol sensitive
Procedure: as §1, with “from A549 (lung), A2780 (ovary), HCT-8 (colon)” for “from HEK293”, “and MCF-7 (breast)” for “and HEK293/ABCB5 kidney cancer cells or MDA-MB-231 pcDNA and MDA-MB-231/BCRP breast”, “celastrol (0.039-100” for “celastrol (0.1-10”, “μmol/L) or taxol” for “μmol/L)”, “reagents was” for “reagents were”

[7] = tested on: HCT-8 (Colon) taxol resistant cancer cells; experiment: MTT cytotoxicity assay, HCT-8 taxol resistant; assay type: cell-based, human
Procedure: as §1, with “from A549 (lung), A2780 (ovary), HCT-8 (colon)” for “from HEK293”, “and MCF-7 (breast)” for “and HEK293/ABCB5 kidney cancer cells or MDA-MB-231 pcDNA and MDA-MB-231/BCRP breast”, “celastrol (0.039-100” for “celastrol (0.1-10”, “μmol/L) or taxol” for “μmol/L)”, “reagents was” for “reagents were”

[8] = tested on: MCF-7 (Breast) taxol resistant cancer cells; experiment: MTT cytotoxicity assay, MCF-7 taxol resistant; assay type: cell-based, human
Procedure: as §1, with “from A549 (lung), A2780 (ovary), HCT-8 (colon)” for “from HEK293”, “and MCF-7 (breast)” for “and HEK293/ABCB5 kidney cancer cells or MDA-MB-231 pcDNA and MDA-MB-231/BCRP breast”, “celastrol (0.039-100” for “celastrol (0.1-10”, “μmol/L) or taxol” for “μmol/L)”, “reagents was” for “reagents were”

[9] = tested on: A2780 (Ovary) cisplatin sensitive cancer cells; experiment: MTT cytotoxicity assay, A2780 cisplatin sensitive; assay type: cell-based, human; conditions: Homo sapiens, A2780, 72 h, read-out: IC50 A2780 (Ovary) (Cisplatin sensitive)
Procedure: as §1, with “A2780 cisplatin sensitive/resistant ovarian” for “HEK293 and HEK293/ABCB5 kidney”, “SGC-7901 cisplatin sensitive/resistant gastric” for “MDA-MB-231 pcDNA and MDA-MB-231/BCRP breast”, “(0.039-100” for “(0.1-10”, “μmol/L) or cisplatin” for “μmol/L)”

P-gp, sequence (P08183 whole entry): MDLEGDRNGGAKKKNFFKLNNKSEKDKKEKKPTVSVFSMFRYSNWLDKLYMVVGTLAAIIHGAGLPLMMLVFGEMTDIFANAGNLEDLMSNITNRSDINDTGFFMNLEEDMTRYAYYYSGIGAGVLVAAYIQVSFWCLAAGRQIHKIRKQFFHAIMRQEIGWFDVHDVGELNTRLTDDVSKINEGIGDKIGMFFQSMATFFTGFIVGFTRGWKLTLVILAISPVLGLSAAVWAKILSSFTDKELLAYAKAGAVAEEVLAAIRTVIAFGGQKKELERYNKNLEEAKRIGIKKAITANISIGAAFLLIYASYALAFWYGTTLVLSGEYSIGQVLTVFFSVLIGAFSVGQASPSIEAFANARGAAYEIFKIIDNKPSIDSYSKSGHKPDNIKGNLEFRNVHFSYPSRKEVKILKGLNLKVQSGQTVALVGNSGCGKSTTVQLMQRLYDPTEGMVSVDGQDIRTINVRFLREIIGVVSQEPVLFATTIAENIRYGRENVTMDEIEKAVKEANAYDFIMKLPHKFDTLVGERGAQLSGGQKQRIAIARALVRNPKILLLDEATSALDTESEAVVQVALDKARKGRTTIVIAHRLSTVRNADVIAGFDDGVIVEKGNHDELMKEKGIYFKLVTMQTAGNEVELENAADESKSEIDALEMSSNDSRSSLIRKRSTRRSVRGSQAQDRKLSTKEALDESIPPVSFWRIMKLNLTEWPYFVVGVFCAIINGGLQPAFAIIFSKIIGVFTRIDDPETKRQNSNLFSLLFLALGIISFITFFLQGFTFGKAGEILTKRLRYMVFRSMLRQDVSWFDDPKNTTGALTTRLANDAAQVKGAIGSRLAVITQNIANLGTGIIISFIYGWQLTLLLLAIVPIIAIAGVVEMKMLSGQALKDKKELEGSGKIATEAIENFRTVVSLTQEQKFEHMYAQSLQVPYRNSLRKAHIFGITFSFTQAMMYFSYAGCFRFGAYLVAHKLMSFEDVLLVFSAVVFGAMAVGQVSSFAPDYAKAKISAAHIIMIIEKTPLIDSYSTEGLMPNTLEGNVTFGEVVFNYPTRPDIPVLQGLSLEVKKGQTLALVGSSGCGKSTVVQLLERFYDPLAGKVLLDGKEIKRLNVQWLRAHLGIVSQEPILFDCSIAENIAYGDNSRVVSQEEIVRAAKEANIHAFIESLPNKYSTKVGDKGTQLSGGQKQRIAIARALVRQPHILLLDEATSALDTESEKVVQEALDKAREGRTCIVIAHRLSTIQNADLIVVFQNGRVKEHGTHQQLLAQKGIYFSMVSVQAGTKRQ

Q: Which results are given for `CC1=C(O)C(=O)C=C2C1=CC=C1[C@@]2(C)CC[C@@]2(C)[C@@H]3C[C@](C)(C(=O)O)CC[C@]3(C)CC[C@]12C` [Celastrol, celastrol]?
A: P-gp activity / Rho123 accumulation (Example 2) [1]: inhibited the P-gp activity dose-dependently; P-gp activity / Rho123 accumulation (Example 9) [1]: inhibited the P-gp activity dose-dependently; pIC50 [2]: 5.51; pIC50 ([3]; Homo sapiens, HEK293, 72 h, MTT, 3 days): 5.46; Resistant Factor ([3]; IC50 HEK293/ABCB5 divided by IC50 HEK293): 1.12; pIC50 [4]: 6.24; Resistant Factor ([5]; A549 taxol resistant versus taxol sensitive): 0.42; pIC50 ([5]; Homo sapiens, A549, 72 h, read-out: IC50 A549 (Lung) (Taxol resistant)): 6.00; Resistant Factor [6]: 0.60; Resistant Factor ([6]; listed as celastrol): 0.6; pIC50 ([6]; Homo sapiens, A2780, 72 h, read-out: IC50 A2780 (Ovary) (Taxol resistant)): 6.27; Resistant Factor ([7]; HCT-8 taxol resistant versus taxol sensitive): 0.59; pIC50 ([7]; Homo sapiens, HCT-8, 72 h, read-out: IC50 HCT-8 (Colon) (Taxol resistant)): 6.26; pIC50 ([8]; Homo sapiens, MCF7, 72 h, read-out: IC50 MCF-7 (Breast) (Taxol resistant)): 6.14; Resistant Factor ([8]; MCF-7 taxol resistant versus taxol sensitive): 0.65; pIC50 [9]: 6.28
